Starred links: 1 amine or outer side, 2 acyl side, 3 side chain; linkers in the order of their positions; H or OH if unused. Non-standard residues stand in square brackets, D forms with d. Residues, ends and D or L forms follow the SMILES beside them. No end group written: not given here. *: point of attachment. Phe(4-NO2) = N[C@@H](Cc1ccc([N+](=O)[O-])cc1)C(=O)O; Benzoyl(2-COOH) = O=C(O)c1ccccc1C(=O)*; Phe(3-F) = N[C@@H](Cc1cccc(F)c1)C(=O)O; Phe(4-F) = N[C@@H](Cc1ccc(F)cc1)C(=O)O; 1Nal = N[C@@H](Cc1cccc2ccccc12)C(=O)O; Phe(2-F) = N[C@@H](Cc1ccccc1F)C(=O)O; 3Pal = N[C@@H](Cc1cccnc1)C(=O)O; pS = N[C@@H](COP(=O)(O)O)C(=O)O; Suc = O=C(CCC(=O)[*:2])[*:1]; X6 = O=C(O)C1CCC(C(=O)*)CC1
Each molecule was assayed against βTrCP (Homo sapiens, UniProt Q9Y297) (assay: Fluorescence polarisation (FP) binding assay with fluorescein-tagged IκB peptide). Conditions: FP Assay IC50/μM, Tables 1, 3, 7, 8; 10 nM fluorescein-tagged IκB peptide.
βTrCP, sequence (Q9Y297 whole entry): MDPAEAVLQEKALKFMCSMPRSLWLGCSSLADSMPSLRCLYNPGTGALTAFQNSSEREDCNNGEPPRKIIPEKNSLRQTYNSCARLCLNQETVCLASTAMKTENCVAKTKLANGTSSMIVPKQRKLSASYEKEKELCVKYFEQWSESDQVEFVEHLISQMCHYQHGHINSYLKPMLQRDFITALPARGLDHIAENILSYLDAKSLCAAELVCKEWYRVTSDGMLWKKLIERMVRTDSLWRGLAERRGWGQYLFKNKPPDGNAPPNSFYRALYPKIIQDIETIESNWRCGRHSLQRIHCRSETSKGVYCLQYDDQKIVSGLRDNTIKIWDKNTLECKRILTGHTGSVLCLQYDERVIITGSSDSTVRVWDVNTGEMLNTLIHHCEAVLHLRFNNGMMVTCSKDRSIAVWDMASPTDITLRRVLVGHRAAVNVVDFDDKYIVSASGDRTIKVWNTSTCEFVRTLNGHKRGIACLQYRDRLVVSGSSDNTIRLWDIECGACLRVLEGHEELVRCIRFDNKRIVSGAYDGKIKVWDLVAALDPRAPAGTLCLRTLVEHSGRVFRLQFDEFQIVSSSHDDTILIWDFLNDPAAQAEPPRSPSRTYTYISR
βTrCP, sequence (P63208 whole entry partner): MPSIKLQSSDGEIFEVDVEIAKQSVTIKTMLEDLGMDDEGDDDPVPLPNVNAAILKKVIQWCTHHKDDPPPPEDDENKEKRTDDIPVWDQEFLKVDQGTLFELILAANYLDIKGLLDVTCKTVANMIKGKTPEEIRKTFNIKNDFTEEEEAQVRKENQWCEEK

Row | Molecule | IC50 [µM]
1 | H-DEGFFE-NH2 [DEGFFE-NH2] | 43.6

Same assay, conditions: Tables 1, 3, 7, 8; 10 nM fluorescein-tagged IκB peptide; read-out: FP Assay IC50/μM

Row | Molecule | IC50 [µM]
2 | CC[C@H](C)[C@H](NC(=O)CNC(=O)[C@H](COP(=O)(O)O)NC(=O)[C@@H](N)CC(=O)O)C(=O)N[C@@H](Cc1c[nH]cn1)C(=O)N[C@@H](CO)C(N)=O [D-pS-GIHS-NH2] (H-D[pS]GIHS-NH2) | > 100
3 | C[C@H](N)C(=O)NCC(=O)N[C@@H](Cc1cccc(F)c1)C(=O)N[C@@H](Cc1ccc([N+](=O)[O-])cc1)C(=O)N[C@@H](CCC(=O)O)C(N)=O [AG-F(3F)-F(4NO2)-E-NH2] (H-AG[Phe(3-F)][Phe(4-NO2)]E-NH2) | > 100
4 | DAGFFE-NH2 [DAGFFE-NH2] | > 100
5 | ADAGIHS-NH2 [ADAGIHS-NH2] | > 100
6 | NC(=O)[C@H](CCC(=O)O)NC(=O)[C@H](Cc1ccccc1)NC(=O)[C@H](Cc1ccccc1)NC(=O)CNC(=O)[C@H](CCC(=O)O)NC(=O)C1CCC(C(=O)O)CC1 (stereo partly shown) [1,4-Chda-EGFFE-NH2] (X6-EGFFE-NH2) | > 100
7 | CC[C@H](C)[C@H](NC(=O)[C@H](Cc1c[nH]cn1)NC(=O)CNC(=O)[C@H](CO)NC(=O)[C@H](COP(=O)(O)O)NC(=O)[C@H](CC(=O)O)NC(=O)[C@@H](N)CC(C)C)C(=O)N[C@@H](CO)C(N)=O [LD-pS-SGHIS-NH2] (H-LD[pS]SGHIS-NH2) | > 100
8 | CC[C@H](C)[C@H](NC(=O)CNC(=O)[C@H](C)NC(=O)c1ccccc1C(=O)O)C(=O)N[C@@H](Cc1ccccc1)C(=O)N[C@@H](CCC(=O)O)C(N)=O [Phth-AGIFE-NH2] ({Benzoyl(2-COOH)}-AGIFE-NH2) | > 100
9 | NC(=O)CC[C@H](N)C(=O)NCC(=O)N[C@@H](Cc1cccc(F)c1)C(=O)N[C@@H](Cc1ccc([N+](=O)[O-])cc1)C(=O)N[C@@H](CCC(=O)O)C(N)=O [QG-F(3F)-F(4NO2)-E-NH2] | > 100
10 | C[C@H](NC(=O)[C@@H](N)CCC(=O)O)C(=O)N[C@@H](Cc1cccc(F)c1)C(=O)N[C@@H](Cc1ccc([N+](=O)[O-])cc1)C(=O)N[C@@H](CCC(=O)O)C(N)=O [EA-F(3F)-F(4NO2)-E-NH2] | > 100
11 | NC(=O)[C@H](CCC(=O)O)NC(=O)[C@H](Cc1cccc2ccccc12)NC(=O)[C@H](Cc1ccc(O)cc1)NC(=O)CNC(=O)[C@@H](N)CCC(=O)O [EGY-1Nal-E-NH2] (H-EGY[1Nal]E-NH2) | > 100
12 | LDASGIHS-NH2 [LDASGIHS-NH2] | > 100
13 | DDASGIHS-NH2 [DDASGIHS-NH2] | > 100
14 | CC[C@H](C)[C@H](NC(=O)CNC(=O)[C@H](COP(=O)(O)O)NC(=O)[C@@H](N)CC(=O)O)C(=O)N[C@@H](Cc1ccccc1)C(=O)N[C@@H](Cc1c[nH]cn1)C(N)=O [D-pS-GIFH-NH2] (H-D[pS]GIFH-NH2) | > 100
15 | CC[C@H](C)[C@H](NC(=O)CNC(=O)[C@H](CCC(=O)O)NC(=O)c1ccccc1C(=O)O)C(=O)N[C@@H](Cc1ccccc1)C(=O)N[C@@H](CCC(=O)O)C(N)=O [Phth-EGIFE-NH2] ({Benzoyl(2-COOH)}-EGIFE-NH2) | > 100
16 | EAGIFE-NH2 [EAGIFE-NH2] | > 100
17 | CC[C@H](C)[C@H](NC(=O)CNC(=O)[C@H](COP(=O)(O)O)NC(=O)[C@H](CC(=O)O)NC(=O)CN)C(=O)N[C@@H](Cc1c[nH]cn1)C(=O)N[C@@H](CO)C(N)=O [GD-pS-GIHS-NH2] (H-GD[pS]GIHS-NH2) | > 100
18 | DAGNFE-NH2 [DAGNFE-NH2] | > 100
19 | NC(=O)C[C@H](NC(=O)CNC(=O)[C@H](COP(=O)(O)O)NC(=O)[C@@H](N)CC(=O)O)C(=O)N[C@@H](Cc1ccccc1)C(=O)N[C@@H](CCC(=O)O)C(N)=O [D-pS-GNFE-NH2] (H-D[pS]GNFE-NH2) | > 100

Results, then the molecule that gave them:

Row | IC50 [µM] | Molecule
20 | 91 | NC(=O)[C@H](Cc1cccc(F)c1)NC(=O)[C@H](Cc1ccc(O)cc1)NC(=O)CNC(=O)[C@H](CCC(=O)O)NC(=O)CCC(=O)O [Suc-EGY-F(3F)-NH2] (Suc-EGY[Phe(3-F)]-NH2)
21 | 71 | NC(=O)[C@H](Cc1ccc(F)cc1)NC(=O)[C@H](Cc1ccc(O)cc1)NC(=O)CNC(=O)[C@H](CCC(=O)O)NC(=O)CCC(=O)O [Suc-EGY-F(4F)-NH2] (Suc-EGY[Phe(4-F)]-NH2)
22 | 70 | NC(=O)[C@H](Cc1cccnc1)NC(=O)[C@H](Cc1cccc(F)c1)NC(=O)CNC(=O)[C@H](CCC(=O)O)NC(=O)CCC(=O)O [Suc-EG-F(3F)-3Pal-NH2] (Suc-EG[Phe(3-F)][3Pal]-NH2)
23 | > 100 | NC(=O)[C@H](Cc1ccc(F)cc1)NC(=O)[C@H](Cc1ccccc1)NC(=O)CNC(=O)[C@H](CCC(=O)O)NC(=O)CCC(=O)O [Suc-EGF-F(4F)-NH2] (Suc-EGF[Phe(4-F)]-NH2)
24 | > 100 | CC[C@H](C)[C@H](NC(=O)CNC(=O)[C@H](CC(N)=O)NC(=O)[C@H](N)CC(=O)O)C(=O)N[C@@H](Cc1ccccc1)C(=O)N[C@@H](CCCNC(=N)N)C(N)=O [dNGIFR-NH2] (H-[dD]NGIFR-NH2)
25 | 8.01 | C[C@H](NC(=O)CCC(=O)O)C(=O)NCC(=O)N[C@@H](Cc1cccc(F)c1)C(=O)N[C@@H](Cc1ccc([N+](=O)[O-])cc1)C(=O)N[C@@H](CCC(=O)O)C(N)=O [Suc-AG-F(3F)-F(4NO2)-E-NH2] (Suc-AG[Phe(3-F)][Phe(4-NO2)]E-NH2)
26 | 82.1 | C[C@H](NC(=O)[C@H](CCC(=O)O)NC(=O)CCC(=O)O)C(=O)N[C@@H](Cc1ccc(O)cc1)C(=O)N[C@@H](Cc1ccccc1)C(=O)N[C@@H](CCC(=O)O)C(N)=O [Suc-EAYFE-NH2]
27 | > 100 | CC[C@H](C)[C@H](NC(=O)CNC(=O)[C@H](COP(=O)(O)O)NC(=O)[C@H](CC(=O)O)NC(=O)[C@@H](N)C(C)C)C(=O)N[C@@H](Cc1c[nH]cn1)C(=O)N[C@@H](CO)C(N)=O [VD-pS-GIHS-NH2] (H-VD[pS]GIHS-NH2)
28 | 1.4 | COc1ccc(C[C@H](NC(=O)[C@H](Cc2cccc(F)c2)NC(=O)CNC(=O)[C@H](CCC(=O)O)NC(=O)CCC(=O)O)C(=O)N[C@@H](CCC(=O)O)C(N)=O)cc1 [Suc-EG-F(3F)-Y(Me)-E-NH2] (Suc-EG[Phe(3-F)]Y(Me)E-NH2)
29 | 15.1 | CC[C@H](C)[C@H](NC(=O)CNC(=O)[C@H](CCC(=O)O)NC(=O)CCC(=O)O)C(=O)N[C@@H](Cc1cccc2ccccc12)C(=O)N[C@@H](CCC(=O)O)C(N)=O [Suc-EGI-1Nal-E-NH2] (Suc-EGI[1Nal]E-NH2)
30 | 91 | NC(=O)[C@H](Cc1ccc([N+](=O)[O-])cc1)NC(=O)[C@H](Cc1ccc(O)cc1)NC(=O)CNC(=O)[C@H](CCC(=O)O)NC(=O)CCC(=O)O [Suc-EGY-F(4NO2)-NH2] (Suc-EGY[Phe(4-NO2)]-NH2)
31 | > 100 | CC[C@H](C)[C@H](NC(=O)CNC(=O)[C@H](C)NC(=O)[C@H](N)CC(=O)O)C(=O)N[C@@H](Cc1ccccc1)C(=O)N[C@@H](CCCNC(=N)N)C(N)=O [dAGIFR-NH2] (H-[dD]AGIFR-NH2)
32 | 22.2 | C[C@H](NC(=O)CCC(=O)O)C(=O)NCC(=O)N[C@@H](Cc1ccc(O)cc1)C(=O)N[C@@H](Cc1ccccc1)C(=O)N[C@@H](CCC(=O)O)C(N)=O [Suc-AGYFE-NH2]
33 | > 100 | NC(=O)[C@H](Cc1cccc(F)c1)NC(=O)[C@H](Cc1ccccc1)NC(=O)CNC(=O)[C@H](CCC(=O)O)NC(=O)CCC(=O)O [Suc-EGF-F(3F)-NH2] (Suc-EGF[Phe(3-F)]-NH2)
34 | > 100 | NC(=O)[C@H](Cc1ccc([N+](=O)[O-])cc1)NC(=O)[C@H](Cc1ccccc1)NC(=O)CNC(=O)[C@H](CCC(=O)O)NC(=O)CCC(=O)O [Suc-EGF-F(4NO2)-NH2] (Suc-EGF[Phe(4-NO2)]-NH2)
35 | 3.63 | NC(=O)[C@H](CCC(=O)O)NC(=O)[C@H](Cc1cccc2ccccc12)NC(=O)[C@H](Cc1cccnc1)NC(=O)CNC(=O)[C@H](CCC(=O)O)NC(=O)CCC(=O)O [Suc-EG-3Pal-1Nal-E-NH2] (Suc-EG[3Pal][1Nal]E-NH2)
36 | > 100 | C[C@H](NC(=O)CCC(=O)O)C(=O)NCC(=O)N[C@@H](Cc1ccccc1)C(=O)N[C@@H](Cc1ccccc1)C(=O)N[C@@H](CCC(=O)O)C(N)=O [Suc-AGFFE-NH2] (Suc-AGFFE-NH2)
37 | 7.22 | NC(=O)CC[C@H](NC(=O)[C@H](Cc1cccc2ccccc12)NC(=O)[C@H](Cc1cccc(F)c1)NC(=O)CNC(=O)[C@H](CCC(=O)O)NC(=O)CCC(=O)O)C(N)=O [Suc-EG-F(3F)-1Nal-Q-NH2] (Suc-EG[Phe(3-F)][1Nal]Q-NH2)
38 | > 100 | VDAGIHS-NH2 [VDAGIHS-NH2]
39 | > 100 | NC(=O)[C@H](Cc1cccc(F)c1)NC(=O)[C@H](Cc1ccccc1F)NC(=O)CNC(=O)[C@H](CCC(=O)O)NC(=O)CCC(=O)O [Suc-EG-F(2F)-F(3F)-NH2] (Suc-EG[Phe(2-F)][Phe(3-F)]-NH2)
40 | > 100 | CC[C@H](C)[C@H](NC(=O)CNC(=O)[C@H](C)NC(=O)[C@H](N)CC(=O)O)C(=O)N[C@@H](Cc1ccccc1)C(=O)N[C@@H](CC(=O)O)C(N)=O [dAGIFD-NH2] (H-[dD]AGIFD-NH2)
41 | 10 | NC(=O)CC[C@H](NC(=O)CCC(=O)O)C(=O)NCC(=O)N[C@@H](Cc1ccccc1)C(=O)N[C@@H](Cc1ccccc1)C(=O)N[C@@H](CCC(=O)O)C(N)=O [Suc-QGFFE-NH2]
42 | 10.7 | NC(=O)CC[C@H](NC(=O)CCC(=O)O)C(=O)NCC(=O)N[C@@H](Cc1ccc(O)cc1)C(=O)N[C@@H](Cc1ccccc1)C(=O)N[C@@H](CCC(=O)O)C(N)=O [Suc-QGYFE-NH2]
43 | > 100 | CC[C@H](C)[C@H](NC(=O)CNC(=O)[C@H](CCC(=O)O)NC(=O)CCC(=O)O)C(=O)N[C@@H](Cc1ccccc1)C(=O)N[C@@H](CCC(=O)O)C(N)=O [Suc-EGIFE-NH2] (Suc-EGIFE-NH2)
44 | 71 | COC(=O)CC[C@H](NC(=O)[C@H](Cc1ccc(OC)cc1)NC(=O)[C@H](Cc1ccccc1)NC(=O)CNC(=O)[C@H](CCC(=O)O)NC(=O)CCC(=O)O)C(N)=O [Suc-EGF-Y(Me)-E(OMe)-NH2] (Suc-EGFY(Me)E(OMe)-NH2)
45 | > 100 | CC[C@H](C)[C@H](NC(=O)CNC(=O)[C@H](CCC(=O)O)NC(=O)[C@H](N)CC(=O)O)C(=O)N[C@@H](Cc1ccccc1)C(=O)N[C@@H](CC(=O)O)C(N)=O [dEGIFD-NH2] (H-[dD]EGIFD-NH2)
46 | 59.8 | C[C@H](NC(=O)[C@H](CCC(=O)O)NC(=O)CCC(=O)O)C(=O)N[C@@H](Cc1ccccc1)C(=O)N[C@@H](Cc1ccccc1)C(=O)N[C@@H](CCC(=O)O)C(N)=O [Suc-EAFFE-NH2]
